Experiments:
Format in all cases: cell-based
Enterococcus faecium = assay: MIC by agar dilution, EFAE 12712; details: strain EFAE 12712
Excerpt: (§1) The in vitro activity of compounds of this invention can be assessed by standard testing procedures such as the determination of minimum inhibitory concentration (MIC) by agar dilution as described in “Approved Standard.

Streptococcus pneumoniae = assay: MIC by agar dilution, SPNE 9912; details: strain SPNE 9912
Excerpt: as §1

Streptococcus pyogenes = assay: MIC by agar dilution, SPYO 152; details: strain SPYO 152
Excerpt: as §1

Enterococcus faecalis = assay: MIC by agar dilution, EFAE 9217; details: strain EFAE 9217
Excerpt: as §1

Staphylococcus aureus = assay: MIC by agar dilution, SAUR 9213; details: strain SAUR 9213
Excerpt: as §1

[1] = system: Staphylococcus epidermidis; assay: MIC by agar dilution, SEPI 30593; details: strain SEPI 30593
Excerpt: as §1

Moraxella catarrhalis = assay: MIC by agar dilution, MCAT 30607; details: strain MCAT 30607
Excerpt: as §1

H. influenzae = assay: MIC by agar dilution, HINF 30063; details: strain HINF 30063
Excerpt: as §1

Compound	Antibacterial Activity Minimum Inhibitory Concentration EFAE 12712 (Enterococcus faecium) [µg/mL]	Antibacterial Activity Minimum Inhibitory Concentration SPNE 9912 (Streptococcus pneumoniae) [µg/mL]	Antibacterial Activity Minimum Inhibitory Concentration SPYO 152 (Streptococcus pyogenes) [µg/mL]	Antibacterial Activity Minimum Inhibitory Concentration EFAE 9217 (Enterococcus faecalis) [µg/mL]	Antibacterial Activity Minimum Inhibitory Concentration SAUR 9213 (Staphylococcus aureus) [µg/mL]	Antibacterial Activity Minimum Inhibitory Concentration SEPI 30593 [1] [µg/mL]	Antibacterial Activity Minimum Inhibitory Concentration MCAT 30607 (Moraxella catarrhalis) [µg/mL]	Antibacterial Activity Minimum Inhibitory Concentration HINF 30063 (H. influenzae) [µg/mL]
CCOC(=O)CN=S1(=O)CCC(c2ccc(N3C[C@H](CNC(=S)CC)OC3=O)cc2F)CC1 (single isomer, unassigned) [Example 20]	1	4	16	1	2	1	4	8
CCC(=S)NC[C@H]1CN(c2ccc(C3CCS(=O)(=NCCO)CC3)c(F)c2)C(=O)O1 (single isomer, unassigned) [Example 24]	1	0.25	0.5	1	2	0.5	4	4
CCC(=S)NC[C@H]1CN(c2ccc(N3CCS(=O)(=NC(=O)OC)CC3)c(F)c2)C(=O)O1 [Example 27, N-[((5S)-3-{3-Fluoro-4-(1-[(methoxycarbonyl)imino]-1-oxido-1λ^4,4-thiazinan-4-yl)phenyl}-2-oxo-1,3-oxazolidin-5-yl)methyl]propanethioamide]	0.5	0.125	0.5	0.5	2	0.5	8	4
CC(=O)N=S1(=O)CCC(c2ccc(N3C[C@H](CNC(C)=O)OC3=O)cc2F)CC1 (single isomer, unassigned) [Example 12]	–	0.5	1	2	8	1	8	16
COC(=O)N=S1(=O)CCC(c2ccc(N3C[C@H](CNC(=S)C4CC4)OC3=O)cc2F)CC1 (single isomer, unassigned) [Example 30]	0.5	0.125	0.5	0.5	1	0.5	0.5	4
N=S1(=O)CCC(c2ccc(N3C[C@H](CNC(=S)C4CC4)OC3=O)cc2F)CC1 (single isomer, unassigned) [Example 11]	0.5	0.25	0.25	0.5	1	0.5	1	4

Source: patent US20010046987A1, “Oxazolidinones having a sulfoximine functionality” (priority 1999, published 2001)
